Experimental findings from paper PMC10072326, “Promising anticancer agents based on 8-hydroxyquinoline hydrazone copper(II) complexes” (Frontiers in Chemistry, 2023) are described below.

The term IC50 denotes the concentration needed to halve the response being measured. A word on the MIC: it is the lowest concentration that inhibits growth of the organism.

Series [1] is described as follows: Thermodynamic solubility at pH 7.4. Format: physicochemical. To be noted: Cu(II) complexes; pH 7.40; 20 mM HEPES; 25.0°C. The protocol:
Thermodynamic solubility (S) was measured for the new ligands, L^7 and L^8, since data for the rest of the series was previously reported (9), and for selected Cu(II) complexes: 1, 5 and 6. Solubility was measured for the saturated solutions in water at pH 7.40 in 20 mM HEPES at 25.0 ± 0.1 °C. The concentration was determined by UV-Vis spectrophotometry using the stock solutions of the compounds with known concentrations dissolved in 100% DMSO, 50% and 25% (v/v) DMSO/buffered aqueous solutions for the calibration.

The subject of another series is A-549 cells. The series is described as follows: Sulforhodamine B (SRB) cell viability assay. It counts as cell-based. The settings on record: 72 h. As to the method:
(§1) Copper compounds were tested, along with the free ligands and cisplatin as the positive control, for their cytotoxicity on both melanoma (A-375) and lung adenocarcinoma (A-549) cell lines in the concentration range 0.78–50 μM. Following 72 h of incubation, cell viability was measured via sulforhodamine B (SRB) assay (Supplementary Figure S25).
(§2) A-375 cells (ATCC, CRL-3222) were grown in Dulbecco’s Modified Eagle Medium with high glucose (Gibco #11965118) and A-549 (ATCC, CCL-185) cells were grown in Dulbecco’s Modified Eagle Medium F-12 (Gibco #11320033), supplemented with 10% FBS (Gibco, #10500064) and Penicillin-Streptomycin (10,000 U/mL, Gibco, #15140122). Cells were incubated at 37 °C, 5% CO2 incubator and subcultured every 3 days.
(§3) All the tested complexes were dissolved in DMSO (10 mM stock solution), and aliquots were stored at -20 °C, thawed on the experiment day and used only once. For SRB cell viability assay, A-375 and A-549 cells were seeded on 96-well plates (4×10^3 cells/well) and treated with serial dilutions of indicated compounds (with a concentration range of 0-50 μM, 72 h). Trichloroacetic acid (TCA) was added to wells for fixation at a final concentration of 10%, for 1 h at 4 °C. Each well was washed five times with ddH2O, dried, and incubated with 0.4% (w/v) SRB dye (50 µL/well) for 30 min at room temperature. The wells were washed with 1% acetic acid (v/v) five times, and 150 µL of 10 mM Tris solution was added to dissolve the stain. Colorimetric measurements were taken at λ = 564 nm. Viability percentage was calculated as follows: % Cell Viability = [100 × (sample Abs.-blank) / (non-treated control Abs.-blank)].

A further series deals with A-375 cells. Nature of the series: Sulforhodamine B (SRB) cell viability assay. It counts as cell-based. The settings on record: 72 h. As to the method:
as §1, §2, §3

Series [2] deals with bovine serum albumin (BSA) (Bos taurus, UniProt P02769). The series is described as follows: BSA fluorescence quenching. It counts as binding. Details: Affinity constant K ± SD: unit not given here. The settings on record: fluorescence quenching; HypSpec2014; 1:1 species assumed. As to the method:
To evaluate the interaction of the compounds, both organic and Cu(II) complexes, with bovine serum albumin (BSA) fluorescence spectra were measured. In a typical fluorescence experiment, to a solution of 1.5 μM of BSA in the same buffer, successive aliquots of a stock solution of each compound in DMSO were added directly to the cuvette (optical path 1.0 cm). The fluorescence emission was recorded between 310 and 600 nm with excitation at 295 nm. The final DMSO % was kept below 2% (v/v). The Stern-Volmer plots were built using the emission at 340 nm and blank samples (in the absence of BSA) with the same concentration of the complexes were recorded and subsequently subtracted from the corresponding emission spectra containing the fluorophore. Moreover, the fluorescence emission intensity was corrected for reabsorption and inner filter effects using UV-Vis absorption data recorded for each sample, since all complexes absorb in the measured wavelength range (19, 20).
The interaction of the organic compounds and Cu(II) complexes with BSA was monitored by studying the quenching of albumin’s fluorescence emission with increasing concentrations of the complexes (25). Overall, the intensity of the Trp emission decreases with the addition of the complexes, except for 8 (see Figs. S19). The Stern-Volmer relationship was used to analyse the fluorescence quenching process:
where I0 and I are the fluorescence intensities in the absence and in the presence of quencher, kq is the bimolecular quenching rate, τ0 is the fluorophore lifetime in the absence of the quencher (6.22 ns) (26) and [Q] is the quencher concentration. […] This linear relationship is obeyed for all complexes except 5, where a downward curvature is observed. This can be an indication of two distinct binding sites, corresponding to two populations of fluorophores, one being accessible and other inaccessible or buried inside the protein. In such cases, the Stern-Volmer relation can be modified to (27):
where ΔI = I0 – I, Ka is the Stern-Volmer constant for the accessible fraction and fa is the fraction of accessible fluorophore. […] As first approximation, the total concentration of quencher was used to check the quenching mechanism. […] As all systems presented high absorbance values in the measured range of wavelengths, no excess of quencher was used and, therefore, 1:1 species will be assumed for these interactions.

The nature of series [3]: Cu(II) complex formation and stability constants by UV-Vis spectrophotometric titrations. Format: physicochemical. To be noted: physiological pH; 1 μM concentration. As to the method:
The complex formation processes of L^1, L^5 and L^6 with Cu(II) ions were studied by UV-Vis spectrophotometry in 30% (v/v) DMSO/H2O using relatively low concentrations (c L = 50–60 μM), due to the limited water solubility of the ligand precursors as well as of the Cu(II) complexes (see thermodynamic solubility data in aqueous media in Table 2 and Table 3). L^1 was selected as the simplest compound of the studied ligand series, whereas L^5 and L^6 were selected to compare with the oxidovanadium(IV) system ([Ribeiro et al., 2022]). The solution stability and stoichiometry of the Cu(II) complexes were determined by the evaluation of the UV-Vis spectra recorded at various pH values (representative spectra are shown for the Cu(II) ‒ L^1 and Cu(II) ‒ L^6 systems in Figures 3A,B and for Cu(II) ‒ L^5 in Supplementary Figure S10A). The computed overall stability constants and pK a values of the complexes are collected in Table 3. The formation of only mono-ligand complexes was found with [Cu(LH)]^+, [Cu(L)], and [Cu(LH‒1)]^‒ (and [Cu(LH‒2)]^2‒ in the case of L^6) compositions, and their computed molar absorbance spectra are shown in Figures 3C, D, Supplementary Figure S10B.
An Agilent Cary 8454 diode array spectrophotometer was used to record the UV-Vis spectra in the range of 200–800 nm. Titrations were carried out with a Metrohm 665 Dosimat burette and an Orion 710A pH-meter equipped with a Metrohm combined electrode. A ionic strength of 0.10 M (KCl) was used to keep the activity coefficients constant. The titrations were performed with 0.10 M carbonate-free KOH solution in a 30% (v/v) DMSO/H2O solvent mixture. […] The average water ionization constant (pKw) is 14.53 ± 0.05 in the 30% (v/v) DMSO/H2O solvent mixture. The pKa values of the ligand precursors and the logβ values for the Cu(II) complexes were determined in 30% (v/v) DMSO/H2O in the same way as it was done in our previous publications (9, 11).
Spectrophotometric titrations were carried out on samples containing the ligands at 50 μM concentration, in the pH range from 2.0 to 11.5 in the absence or the presence of 1, 0.5 or 0.25 equiv. Cu(II) ions, using 10 cm^3 sample volumes. Proton dissociation constants (pKa) of the ligand precursors as well as stoichiometry and stability constants of the Cu(II) complexes (β) were calculated by the computer program PSEQUAD (12). The usual definition of overall (β) and stepwise (K) formation constants is used: […]

Series [4] has as its system Escherichia coli K-12 AG100. The series is described as follows: MIC determination. It counts as cell-based. The settings on record: E. coli; 18 h. As to the method:
(§4) Wild-type Escherichia coli K-12 AG100 strain [argE3 thi-1 rpsL xyl mtl Δ(gal-uvrB) supE44] expressing the AcrAB TolC efflux pump at its basal level and Klebsiella pneumoniae ATCC 49619 Gram-negative strains were studied in the experiments. Sensitive (ATCC 25928) and the methicillin-resistant (MRSA 272123) subspecies of Staphylococcus aureus were used as Gram-positive strains in the assays.
(§5) Minimum inhibitory concentration (MIC) values of selected compounds were determined in 96-well plates based on the Clinical and Laboratory Standard Institute guidelines (CLSI guidelines). The stock solutions of the compounds were dissolved in DMSO using 1.3 μL of Mueller Hinton Broth, and then two-fold serial dilutions were performed. The starting concentration of the compounds was 100 μM. Then 10^‒4 dilution of an overnight bacterial culture in 100 μL of medium was added to each well, except for the medium control wells.

Series [5] has as its system Klebsiella pneumoniae ATCC 49619. Nature of the series: MIC determination. It counts as cell-based. The settings on record: K. pneumoniae; 18 h. As to the method:
as §4, §5

In another series the test system is S. aureus MRSA 272123. Nature of the series: MIC determination. The settings on record: 18 h. It counts as cell-based, Staphylococcus aureus. As to the method:
as §4, §5

A further series has as its system S. aureus ATCC 25928. Nature of the series: MIC determination. To be noted: S. aureus ATCC 25928 (sensitive); 18 h. Format: cell-based, Staphylococcus aureus. The protocol:
as §4, §5

Bounds are passed on as bounds.

bovine serum albumin (BSA), sequence (P02769 25-607): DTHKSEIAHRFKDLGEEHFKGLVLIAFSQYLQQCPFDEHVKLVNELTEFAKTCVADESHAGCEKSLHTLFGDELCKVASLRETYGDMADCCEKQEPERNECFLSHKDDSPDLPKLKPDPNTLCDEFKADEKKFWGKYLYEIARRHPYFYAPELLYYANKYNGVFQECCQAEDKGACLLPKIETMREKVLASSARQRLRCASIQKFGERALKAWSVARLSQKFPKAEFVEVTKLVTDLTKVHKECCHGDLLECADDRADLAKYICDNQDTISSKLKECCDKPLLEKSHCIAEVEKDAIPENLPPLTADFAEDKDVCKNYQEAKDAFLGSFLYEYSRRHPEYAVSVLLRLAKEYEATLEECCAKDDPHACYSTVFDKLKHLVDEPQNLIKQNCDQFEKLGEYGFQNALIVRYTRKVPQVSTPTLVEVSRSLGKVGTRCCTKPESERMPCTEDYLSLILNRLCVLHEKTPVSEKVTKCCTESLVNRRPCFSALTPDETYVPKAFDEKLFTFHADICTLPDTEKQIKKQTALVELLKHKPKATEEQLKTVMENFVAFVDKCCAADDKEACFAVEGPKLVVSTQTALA

For the molecule `O=C([N-]N=Cc1ccc2cccc([O-])c2n1)c1ccc(Cl)cc1.O=C([N-]N=Cc1ccc2cccc([O-])c2n1)c1ccc(Cl)cc1.O=C([N-]N=Cc1ccc2cccc([O-])c2n1)c1ccc(Cl)cc1.[Cu+2].[Cu+2].[Cu+2]` [Complex 2, [Cu(L^2)]3], the “thermodynamic solubility S 7.4” value in [1] was < 1 µM. For the same molecule, the figures for the IC50 in the series on A-549 cells and with A-375 cells were 9.3 ± 0.4 µM and 6.5 ± 0.8 µM, respectively. Also, the “Affinity constant K ± SD” value in [2] is given as “(8.3 ± 0.1) × 10^4”.

For the molecule `CC(=O)[O-].Cc1ccc(C(=O)NN=Cc2ccc3cccc([O-])c3n2)cc1.[Cu+2]` [Complex 4, [Cu(HL^4)(AcO)]], in series [1], the “thermodynamic solubility S 7.4” value is 4.0 ± 0.2 µM. Moreover, the results for the half-inhibitory concentration (IC50) in the series on A-549 cells and in the series with A-375 cells were 3.9 ± 0.6 µM and 2 ± 1.3 µM, respectively. Moreover, the “Affinity constant K ± SD” value in series [2] is on record as “(3.2 ± 1.0) × 10^6”.

On to `O=C([N-]N=Cc1ccc2cccc([O-])c2n1)c1ccc(O)cc1.O=C([N-]N=Cc1ccc2cccc([O-])c2n1)c1ccc(O)cc1.O=C([N-]N=Cc1ccc2cccc([O-])c2n1)c1ccc(O)cc1.[Cu+2].[Cu+2].[Cu+2]` [Complex 6, [Cu(L^6)]3], for which the “level of dissociation of the complex” value in series [3] is reported as “ca. 5%”. Moreover, the minimal inhibitory concentration (MIC) (in series [4]; in series [5]; against S. aureus MRSA 272123; against S. aureus ATCC 25928) was > 100 µM in each case. The half-inhibitory concentration (IC50) with A-549 cells worked out at 16 ± 0.3 µM; in the series on A-375 cells it was 13.6 ± 0.9 µM. In addition, the “Affinity constant K ± SD” value in series [2] is reported as “(2.7 ± 0.8) × 10^5”.

Turning to `[Cl][Cu][Cl]` [CuCl2, reference compound], the MIC (in series [4]; in series [5]; with S. aureus MRSA 272123; with S. aureus ATCC 25928) was > 100 µM throughout.

`N.N.[Cl][Pt][Cl]` [cisplatin, reference compound]: the IC50 stood at 16.5 ± 3.4 µM with A-549 cells and 11.2 ± 0.3 µM in the series on A-375 cells.
